Data taken from article PMC10141580, “Cyclic Dichalcogenides Extend the Reach of Bioreductive Prodrugs to Harness Thiol/Disulfide Oxidoreductases: Applications to seco-Duocarmycins Targeting the Thioredoxin System” (ACS Central Science, 2023).
Where two headings read alike, the source gives them in different places.

Test system: panel of 140 standard cancer cell lines
Test: ProliFiler-140 cancer cell line screen (CellTiterGlo, 72 h)
Type: cell-based
Settings: Homo sapiens
Procedure: Incubations were performed for 72 h before automated viability readout with CellTiterGlo (Figure 8).
End of Figure S11 (part 5 of 5): ProliFiler-140 cancer cell line screening for cytotoxicity of the prodrugs.
8-data-point dose response curves from CellTiter-Glo® viability readout.
ProliFiler-140 cell line panel part V

Q: Which results are given for `COc1cccc2c1C(=O)c1c(O)c3c(c(O)c1C2=O)C[C@@](O)(C(=O)CO)C[C@@H]3O[C@H]1C[C@H](N)[C@H](O)[C@H](C)O1` [doxorubicin, reference compound]?
A: IC50 (DV-90, DV90 (Lung), read-out: IC50 [M] (ProliFiler-140)): 1.9e-08 M; IC50 (Detroit 562, Detroit562 (Head/Neck), read-out: IC50 [M] (ProliFiler-140)): 1.54e-07 M; IC50 (EFM-19, EFM-19 (Breast), read-out: IC50 [M] (ProliFiler-140)): 4.7e-07 M; IC50 (EFO-27, EFO-27 (Ovary), read-out: IC50 [M] (ProliFiler-140)): 2.9e-07 M; IC50 (EPLC-272H, EPLC-272H (Lung), read-out: IC50 [M] (ProliFiler-140)): 1.97e-07 M; IC50 (HCC38, HCC38 (Breast), read-out: IC50 [M] (ProliFiler-140)): 5.21e-08 M; IC50 (HCC827, HCC827 (Lung), read-out: IC50 [M] (ProliFiler-140)): 3.5e-07 M; IC50 (HCC1569, HCC 1569 (Breast), read-out: IC50 [M] (ProliFiler-140)): 7e-07 M; IC50 (HCT-15, HCT-15 (Colon), read-out: IC50 [M] (ProliFiler-140)): 6.43e-07 M; IC50 (HCT-116, HCT116 (Colon), read-out: IC50 [M] (ProliFiler-140)): 1.07e-07 M; IC50 (HCT-116, HCT116, read-out: IC50): 1.1e-07 M; IC50 (HEC-1-A, HEC-1-A (Endometrium), read-out: IC50 [M] (ProliFiler-140)): 3.3e-07 M; IC50 (HEC-1B, HEC-1-B (Endometrium), read-out: IC50 [M] (ProliFiler-140)): 2.4e-06 M; IC50 (HL-60, HL-60 (Blood), read-out: IC50 [M] (ProliFiler-140)): 2.6e-08 M; IC50 (HL-60, HL-60, read-out: IC50): 2.6e-08 M; IC50 (HT-29, HT-29 (Colon), read-out: IC50 [M] (ProliFiler-140)): 3.7e-07 M; IC50 (HT-29, HT-29, read-out: IC50): 3.7e-07 M; IC50 (HT-1080, HT-1080 (Fibrosarcoma), read-out: IC50 [M] (ProliFiler-140)): 7.6e-08 M; IC50 (HeLa, HeLa (Cervix), read-out: IC50 [M] (ProliFiler-140)): 8.04e-08 M; IC50 (Hs746T, Hs 746T (Stomach), read-out: IC50 [M] (ProliFiler-140)): 4e-07 M; IC50 (HuTu80, Hutu 80 (Duodenum), read-out: IC50 [M] (ProliFiler-140)): 1.87e-08 M; IC50 (Huh-7, HuH7 (Liver), read-out: IC50 [M] (ProliFiler-140)): 2.1e-07 M; IC50 (Ishikawa, Ishikawa (Endometrium), read-out: IC50 [M] (ProliFiler-140)): 7.7e-08 M; IC50 (JIMT-1, JIMT-1 (Breast), read-out: IC50 [M] (ProliFiler-140)): 1.3e-06 M; IC50 (JVM-3, JVM-3 (Blood), read-out: IC50 [M] (ProliFiler-140)): 3e-08 M; IC50 (Jurkat, Jurkat (Blood), read-out: IC50 [M] (ProliFiler-140)): 4.01e-08 M; IC50 (K562, K562 (Blood), read-out: IC50 [M] (ProliFiler-140)): 4.4e-07 M; IC50 (KARPAS-299, KARPAS 299 (Blood), read-out: IC50 [M] (ProliFiler-140)): 7.32e-08 M; IC50 (KATO III, Kato III (Stomach), read-out: IC50 [M] (ProliFiler-140)): 9e-07 M; IC50 (KG-1a, KG-1 a (Blood), read-out: IC50 [M] (ProliFiler-140)): 4.91e-07 M; IC50 (KMS-12-BM, KMS-12-BM (Blood), read-out: IC50 [M] (ProliFiler-140)): 1.65e-07 M; IC50 (LN-229, LN229 (Brain), read-out: IC50 [M] (ProliFiler-140)): 2.16e-07 M; IC50 (LNCaP, LnCap (Prostate), read-out: IC50 [M] (ProliFiler-140)): 1.9e-07 M; IC50 (LoVo, LOVO (Colon), read-out: IC50 [M] (ProliFiler-140)): 1.11e-07 M; IC50 (MDA-MB-435, MDA MB 435 (Skin), read-out: IC50 [M] (ProliFiler-140)): 4.8e-07 M; IC50 (MDA-MB-468, MDA-MB-468 (Breast), read-out: IC50 [M] (ProliFiler-140)): 4.7e-08 M; IC50 (MEC1, MEC-1 (Blood), read-out: IC50 [M] (ProliFiler-140)): 7.3e-08 M; IC50 (MIA PaCa-2, Mia PaCA 2 (Pancreas), read-out: IC50 [M] (ProliFiler-140)): 7.37e-08 M; IC50 (MKN-1, MKN-1 (Stomach), read-out: IC50 [M] (ProliFiler-140)): 5.2e-08 M; IC50 (MKN-45, MKN-45 (Stomach), read-out: IC50 [M] (ProliFiler-140)): 3.16e-07 M; IC50 (MOLM-13, MOLM-13 (Blood), read-out: IC50 [M] (ProliFiler-140)): 2.1e-08 M; IC50 (MOLT-4, MOLT-4 (Blood), read-out: IC50 [M] (ProliFiler-140)): 2.6e-08 M; IC50 (MOLT-4, MOLT-4, read-out: IC50): 2.6e-08 M; IC50 (MV4-11, MV4-11 (Blood), read-out: IC50 [M] (ProliFiler-140)): 4.3e-09 M; IC50 (NALM-6, NALM-6 (Blood), read-out: IC50 [M] (ProliFiler-140)): 2.3e-08 M; IC50 (NCI-H82, NCI-H82 (Lung), read-out: IC50 [M] (ProliFiler-140)): 6.2e-07 M; IC50 (NCI-H292, NCI-H292 (Lung), read-out: IC50 [M] (ProliFiler-140)): 7.2e-08 M; IC50 (NCI-H441, NCI-H441 (Lung), read-out: IC50 [M] (ProliFiler-140)): 3.49e-07 M; IC50 (NCI-H460, H460 (Lung), read-out: IC50 [M] (ProliFiler-140)): 2.6e-08 M; IC50 (NCI-H838, NCI-H838 (Lung), read-out: IC50 [M] (ProliFiler-140)): 1.5e-07 M; IC50 (NCI-H1048, NCI-H1048 (Lung), read-out: IC50 [M] (ProliFiler-140)): 3.2e-08 M; IC50 (NCI-H1299, H1299 (Lung), read-out: IC50 [M] (ProliFiler-140)): 2.23e-07 M; IC50 (NCI-H1437, NCI-H1437 (Lung), read-out: IC50 [M] (ProliFiler-140)): 1.39e-07 M; IC50 (NCI-H1563, NCI-H1563 (Lung), read-out: IC50 [M] (ProliFiler-140)): 5.4e-07 M; IC50 (NCI-H1573, NCI-H1573 (Lung), read-out: IC50 [M] (ProliFiler-140)): 3e-06 M; IC50 (NCI-H1581, NCI-H1581 (Lung), read-out: IC50 [M] (ProliFiler-140)): 1.47e-07 M; IC50 (NCI-H1703, NCI-H1703 (Lung), read-out: IC50 [M] (ProliFiler-140)): 9.2e-08 M; IC50 (NCI-H1838, NCI-H1838 (Lung), read-out: IC50 [M] (ProliFiler-140)): 2.5e-07 M
